Measured values as given in patent US20150266850A1 (E.I.DU PONT DE NEMOURS AND COMPANY, priority 2012, published 2015).
Marks after values point to notes of the source that are not given here.

Key:
Type in all cases: in vivo
[1] = system: Erysiphe graminis f. sp. tritici; assay: Test A: wheat powdery mildew, preventive spray on wheat seedlings, visual disease rating; conditions: 100 = 100% disease control; for pest or weed control at 200 ppm: Blumeria graminis, 192 h
In short: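 Wheat seedlings sprayed to run-off with compound in acetone/water with 250 ppm Trem 014 (200 ppm ≈ 800 g/ha; some at 40 or 50 ppm), inoculated next day with spore dust. After 8 days at 20° C, disease control rated visually, 0–100% relative to controls.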

[2] = system: Puccinia recondita f sp. tritici; assay: Test B: wheat leaf rust, preventive spray on wheat seedlings, visual disease rating; conditions: 100 = 100% disease control; for pest or weed control at 200 ppm: 192 h
In short: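 Test suspension in acetone/water 50/50 with 250 ppm Trem® 014, sprayed to run-off on wheat seedlings at 200 ppm (≈800 g/ha), or 40 or 50 ppm where marked. Inoculated next day with spores, held 24 h saturated at 20° C, then 7 days at 20° C; disease control rated visually, 0–100 versus controls.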

Septoria tritici = assay: Test C: wheat leaf blotch, preventive spray on wheat seedlings, visual disease rating; conditions: 100 = 100% disease control; for pest or weed control at 200 ppm: Zymoseptoria tritici, 504 h
In short: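 Compounds in acetone (11% of final volume) suspended in acetone/water 50/50 with 250 ppm Trem® 014; 200 ppm (≈800 g/ha), some at 40 or 50 ppm, sprayed to run-off. Septoria tritici inoculated next day; 48 h saturated at 24° C., then 19 days at 20° C.; visual rating, 0–100% control vs untreated.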

Septoria nodorum = assay: Test D: wheat glume blotch, preventive spray on wheat seedlings, visual disease rating; conditions: 100 = 100% disease control; for pest or weed control at 200 ppm: Parastagonospora nodorum, 216 h
In short: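 Preventive test: wheat seedlings sprayed to run-off with compound suspension (acetone/water with 250 ppm Trem 014; 200 ppm, some at 40 or 50 ppm), inoculated with Septoria nodorum next day. Held 48 h saturated at 20° C, then 7 days at 20° C; visual rating 0-100% disease control versus controls.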

Botrytis cinerea = assay: Test E: tomato botrytis, preventive spray on tomato seedlings, visual disease rating; conditions: 100 = 100% disease control; for pest or weed control at 200 ppm: Botrytis cinerea, 120 h
Excerpt: General protocol for preparing test suspensions for Tests A-E: the test compounds were first dissolved in acetone in an amount equal to 11% of the final volume and then suspended at the desired concentration (in ppm) in acetone and purified water (50/50 mix by volume) containing 250 ppm of the surfactant Trem® 014 (polyhydric alcohol esters). The resulting test suspensions were then used in Tests A-E. Spraying a 200 ppm test suspension to the point of run-off on the test plants was the equivalent of a rate of 800 g/ha.
The test suspension was sprayed to the point of run-off on tomato seedlings. The following day the seedlings were inoculated with a spore suspension of Botrytis cinerea (the causal agent of tomato botrytis) and incubated in saturated atmosphere at 20° C. for 48 h, and then moved to a growth chamber at 27° C. for 3 additional days, after which time disease ratings were visually made.
Results for Tests A-E are given in Table A. In the Table, a rating of 100 indicates 100% disease control and a rating of 0 indicates no disease control (relative to the controls). A dash (-) indicates no test results. All results are for 200 ppm except where followed by an “*”, which indicates 40 ppm or “**”, which indicates 50 ppm.

Row | SMILES | Test A disease control rating ([1]; 40 ppm (*)) | Test B disease control rating ([2]; 40 ppm (*)) | Test C disease control rating (Septoria tritici; 40 ppm (*)) | Test D disease control rating (Septoria nodorum; 40 ppm (*)) | Test E disease control rating (Botrytis cinerea; 40 ppm (*)) | further results
1 | COC(=O)NCc1cc(-c2ccn(-c3ccc(Br)cc3Br)n2)ccc1C [Cmpd 62] | 100* % | 100* % | 97* % | 100* % | 100* % | –
2 | COC(=O)NCc1cc(-c2ccn(-c3ccc(Cl)cc3Br)n2)ccc1C [Cmpd 63] | 100* % | 100* % | 96* % | 100* % | 99* % | –
3 | COC(=O)NCc1cc(-c2ccn(-c3ccc(F)cc3F)n2)ccc1C [Cmpd 64] | 100* % | 100* % | 97* % | 100* % | 74* % | –
4 | COC(=O)NCc1cc(-c2ccn(-c3ccc(Cl)cc3F)n2)ccc1C [Cmpd 65] | 100* % | 100* % | 98* % | 100* % | 94* % | –
5 | COC(=O)NCc1cc(-n2ncc(-c3ccc(F)cc3F)n2)ccc1C [Cmpd 67] | 100* % | 100* % | 98* % | 100* % | 33* % | –
6 | COC(=O)NCc1cc(-n2ncc(-c3ccc(OC)cc3Cl)n2)ccc1C [Cmpd 68] | 100* % | 100* % | 99* % | 100* % | 77* % | –
7 | COC(=O)NCc1cc(-n2ccc(-c3ccc(C#N)cc3C)n2)ccc1C [Cmpd 69] | 100* % | 100* % | 66* % | 100* % | 0* % | –
8 | COC(=O)NCc1cc(-n2ccc(-c3ccc(Cl)cc3O)n2)ccc1C [Cmpd 71] | – | – | – | – | – | Test A disease control rating ([1]; 200 ppm): 90%; Test B disease control rating ([2]; 200 ppm): 99%; Test C disease control rating (Septoria tritici; 200 ppm): 51%; Test D disease control rating (Septoria nodorum; 200 ppm): 100%; Test E disease control rating (Botrytis cinerea; 200 ppm): 8%
9 | COC(=O)NCc1cc(-n2ccc(-c3ccc(Cl)cc3OCC#N)n2)ccc1C [Cmpd 72] | 93* % | 100* % | 90* % | 100* % | 0* % | –
10 | CCOc1ccc(-c2ccn(-c3ccc(C)c(CNC(=O)OC)c3)n2)c(Cl)c1 [Cmpd 76] | 100* % | 100* % | 99* % | 100* % | 0* % | –
11 | CCOc1cc(Cl)ccc1-c1ccn(-c2ccc(C)c(CNC(=O)OC)c2)n1 [Cmpd 77] | 100* % | 100* % | 99* % | 100* % | 0* % | –
12 | COC(=O)NCc1cc(-n2ccc(-c3ccc(Cl)cc3Br)n2)ccc1C [Cmpd 80] | 97* % | 100* % | 58* % | 100* % | 81* % | –
13 | COC(=O)NCc1cc(-n2ncc(-c3ccc(Cl)cc3Cl)n2)ccc1C [Cmpd 86] | 99* % | 100* % | 93* % | 100* % | 54* % | –
14 | COC(=O)NCc1cc(-n2ncc(-c3ccc(F)cc3Cl)n2)ccc1C [Cmpd 87] | 98* % | 100* % | 88* % | 100* % | 61* % | –
15 | COC(=O)NCc1cc(-c2ccn(-c3ccc(N)cc3Cl)n2)ccc1C [Cmpd 90] | – | – | – | – | – | Test A disease control rating ([1]; 200 ppm): 0%; Test B disease control rating ([2]; 200 ppm): 98%; Test C disease control rating (Septoria tritici; 200 ppm): 100%; Test D disease control rating (Septoria nodorum; 200 ppm): 100%; Test E disease control rating (Botrytis cinerea; 200 ppm): 97%
16 | COC(=O)NCc1cc(-n2ccc(-c3ccc(OC)cc3O)n2)ccc1C [Cmpd 103] | – | – | – | – | – | Test A disease control rating ([1]; 200 ppm): 48%; Test B disease control rating ([2]; 200 ppm): 100%; Test C disease control rating (Septoria tritici; 200 ppm): 74%; Test D disease control rating (Septoria nodorum; 200 ppm): 100%; Test E disease control rating (Botrytis cinerea; 200 ppm): 0%
17 | COC(=O)NCc1cc(-n2ncc(-c3ccc(OC)cc3C(F)(F)F)n2)ccc1C [Cmpd 104] | 98* % | 100* % | 91* % | 100* % | 0* % | –
18 | C#CCOc1cc(Cl)ccc1-c1ccn(-c2ccc(C)c(CNC(=O)OC)c2)n1 [Cmpd 108] | – | – | – | – | – | Test A disease control rating ([1]; 200 ppm): 99%; Test B disease control rating ([2]; 200 ppm): 100%; Test C disease control rating (Septoria tritici; 200 ppm): 95%; Test D disease control rating (Septoria nodorum; 200 ppm): 100%; Test E disease control rating (Botrytis cinerea; 200 ppm): 8%
19 | COC(=O)NCc1cc(-n2ccc(-c3ccc(Br)cc3Br)n2)ccc1C [Cmpd 109] | 99* % | 100* % | 92* % | 100* % | 0* % | –
20 | COC(=O)NCc1cc(-n2ccc(-c3ccc([N+](=O)[O-])cc3Cl)n2)ccc1C [Cmpd 110] | 72* % | 100* % | 93* % | 100* % | 0* % | –
21 | COC(=O)NCc1cc(-c2ccn(-c3ccc(Br)cc3C#N)n2)ccc1C [Cmpd 111] | – | – | – | – | – | Test A disease control rating ([1]; 200 ppm): 94%; Test B disease control rating ([2]; 200 ppm): 100%; Test C disease control rating (Septoria tritici; 200 ppm): 93%; Test D disease control rating (Septoria nodorum; 200 ppm): 100%; Test E disease control rating (Botrytis cinerea; 200 ppm): 0%
22 | COC(=O)NCc1cc(-n2ncc(-c3ccc(OC)cc3OC)[n+]2[O-])ccc1C [Compound 4] | – | – | – | – | – | pest or weed control at 200 ppm ([1]; 200 ppm): 99%; pest or weed control at 200 ppm ([2]; 200 ppm): 100%; pest or weed control at 200 ppm (Septoria tritici; 200 ppm): 99%; pest or weed control at 200 ppm (Septoria nodorum; 200 ppm): 100%; pest or weed control at 200 ppm (Botrytis cinerea; 200 ppm): 69%
23 | COC(=O)NCc1cc(-n2ncc(-c3ccc(OC)cc3C)n2)ccc1C [Compound 8, methyl N-[[5-[4-(4-methoxy-2-methylphenyl)-2H-1,2,3-triazol-2-yl]-2-methylphenyl]methyl]carbamate] | – | – | – | – | – | pest or weed control at 200 ppm ([1]; 200 ppm): 100%; pest or weed control at 200 ppm ([2]; 200 ppm): 100%; pest or weed control at 200 ppm (Septoria tritici; 200 ppm): 100%; pest or weed control at 200 ppm (Septoria nodorum; 200 ppm): 100%; pest or weed control at 200 ppm (Botrytis cinerea; 200 ppm): 90%
24 | COC(=O)NCc1cc(-c2ccn(-c3ccc(OC)cc3Cl)n2)ccc1C [Compound 20, methyl N-[[5-[1-(2-chloro-4-methoxyphenyl)-1H-pyrazol-3-yl]-2-methylphenyl]-methyl]carbamate] | – | – | – | – | – | pest or weed control at 200 ppm ([1]; 200 ppm): 100%; pest or weed control at 200 ppm ([2]; 200 ppm): 100%; pest or weed control at 200 ppm (Septoria tritici; 200 ppm): 100%; pest or weed control at 200 ppm (Septoria nodorum; 200 ppm): 100%; pest or weed control at 200 ppm (Botrytis cinerea; 200 ppm): 0%
25 | COC(=O)NCc1cc(-c2ccn(-c3ccc(Cl)cc3OC)n2)ccc1C [Compound 28, methyl N-[[5-[1-(4-chloro-2-methoxyphenyl)-1H-pyrazol-3-yl]-2-methylphenyl]-methyl]carbamate] | – | – | – | – | – | pest or weed control at 200 ppm ([1]; 200 ppm): 100%; pest or weed control at 200 ppm ([2]; 200 ppm): 100%; pest or weed control at 200 ppm (Septoria tritici; 200 ppm): 100%; pest or weed control at 200 ppm (Septoria nodorum; 200 ppm): 100%; pest or weed control at 200 ppm (Botrytis cinerea; 200 ppm): 57%
